Measurements reported in publication PMC8112869, “Therapeutic inhibition of keratinocyte TRPV3 sensory channel by local anesthetic dyclonine” (eLife, 2021).

How the values were obtained:
Assay type in all cases: cell-based
TRPM8 = molecular target: T1, TRPM8 (Rattus norvegicus, UniProt Q8R455); experiment: Whole-cell recording of menthol-activated TRPM8 in HEK 293T cells
T1 construct: expressed in transfected cells; host or cells: HEK 293T
Source text: (§1) The WT mouse TRPV3 (mTRPV3), human TRPV3 (hTRPV3), rat TRPV1, rat TRPV2, rat TRPM8, and mouse TRPA1 cDNAs were generously provided by Dr. Feng Qin (State University of New York at Buffalo, Buffalo, USA). The GFP-mTRPV3 WT and the mutants (mTRPV3-G573S and mTRPV3-G573C) in pcDNA4/TO vector were gifts from Dr. Michael X Zhu (The University of Texas Health Science Center at Houston, Houston, USA). The WT fTRPV3 was kindly provided by Dr. Makoto Tominaga (Department of Physiological Sciences, SOKENDAI, Okazaki, Japan). All mutations were made using the overlap-extension polymerase chain reaction method as previously described ([Tian et al., 2019]). The resulting mutations were then verified by DNA sequencing. […]
(§2) Conventional whole-cell and excised patch-clamp recording methods were used. […] For a subset of recordings, currents were amplified using an Axopatch 200B amplifier (Molecular Devices, Sunnyvale, CA) and recorded through a BNC-2090/MIO acquisition system (National Instruments, Austin, TX) using QStudio developed by Dr. Feng Qin at State University of New York at Buffalo. […] As determined by the conductance tests, the solution around a patch under study was fully controlled by the application of a flow rate of 100 μl/min or greater. […]

TRPA1 = molecular target: T2, TRPA1 (Mus musculus, UniProt Q8BLA8); experiment: Whole-cell recording of AITC-activated TRPA1 in HEK 293T cells
T2 construct: expressed in transfected cells; host or cells: HEK 293T
T2 sequence (Q8BLA8 whole entry): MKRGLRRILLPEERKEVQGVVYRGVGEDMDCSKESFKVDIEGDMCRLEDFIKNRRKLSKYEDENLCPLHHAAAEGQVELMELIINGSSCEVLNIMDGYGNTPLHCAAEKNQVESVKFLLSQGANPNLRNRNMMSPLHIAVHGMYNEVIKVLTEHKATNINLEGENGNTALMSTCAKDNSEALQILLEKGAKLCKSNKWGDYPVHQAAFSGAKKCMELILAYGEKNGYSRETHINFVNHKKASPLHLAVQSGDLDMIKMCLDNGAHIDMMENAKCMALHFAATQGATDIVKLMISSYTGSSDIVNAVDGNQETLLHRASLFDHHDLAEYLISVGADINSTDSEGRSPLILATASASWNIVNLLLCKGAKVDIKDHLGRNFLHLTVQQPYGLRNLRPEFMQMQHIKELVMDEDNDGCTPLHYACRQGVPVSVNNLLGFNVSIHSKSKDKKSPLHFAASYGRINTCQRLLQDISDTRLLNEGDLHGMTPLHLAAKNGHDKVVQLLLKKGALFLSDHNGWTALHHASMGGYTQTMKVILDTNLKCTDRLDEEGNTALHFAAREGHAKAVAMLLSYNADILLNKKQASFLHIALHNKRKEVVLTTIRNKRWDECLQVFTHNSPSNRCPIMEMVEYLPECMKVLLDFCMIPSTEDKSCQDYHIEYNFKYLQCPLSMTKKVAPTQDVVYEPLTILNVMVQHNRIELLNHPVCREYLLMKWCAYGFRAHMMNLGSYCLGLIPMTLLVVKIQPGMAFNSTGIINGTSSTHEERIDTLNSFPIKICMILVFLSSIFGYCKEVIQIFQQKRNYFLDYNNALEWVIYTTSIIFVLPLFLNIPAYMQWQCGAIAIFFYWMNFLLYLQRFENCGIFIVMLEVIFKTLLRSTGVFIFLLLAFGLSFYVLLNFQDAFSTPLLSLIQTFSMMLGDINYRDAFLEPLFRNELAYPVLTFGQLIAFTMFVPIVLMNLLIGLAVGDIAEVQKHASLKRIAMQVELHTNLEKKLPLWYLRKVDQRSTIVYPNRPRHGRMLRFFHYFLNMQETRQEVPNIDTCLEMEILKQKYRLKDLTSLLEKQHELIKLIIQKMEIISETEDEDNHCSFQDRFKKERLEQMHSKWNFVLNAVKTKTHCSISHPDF
Source text: as §1, §2

frog TRPV3 (fTRPV3) = frog TRPV3 (fTRPV3) (Xenopus tropicalis, UniProt F6UZP3); experiment: Whole-cell recording of 2-APB-evoked currents in fTRPV3-expressing HEK 293T cells
Sequence of frog TRPV3 (fTRPV3) (F6UZP3 entry or part of it): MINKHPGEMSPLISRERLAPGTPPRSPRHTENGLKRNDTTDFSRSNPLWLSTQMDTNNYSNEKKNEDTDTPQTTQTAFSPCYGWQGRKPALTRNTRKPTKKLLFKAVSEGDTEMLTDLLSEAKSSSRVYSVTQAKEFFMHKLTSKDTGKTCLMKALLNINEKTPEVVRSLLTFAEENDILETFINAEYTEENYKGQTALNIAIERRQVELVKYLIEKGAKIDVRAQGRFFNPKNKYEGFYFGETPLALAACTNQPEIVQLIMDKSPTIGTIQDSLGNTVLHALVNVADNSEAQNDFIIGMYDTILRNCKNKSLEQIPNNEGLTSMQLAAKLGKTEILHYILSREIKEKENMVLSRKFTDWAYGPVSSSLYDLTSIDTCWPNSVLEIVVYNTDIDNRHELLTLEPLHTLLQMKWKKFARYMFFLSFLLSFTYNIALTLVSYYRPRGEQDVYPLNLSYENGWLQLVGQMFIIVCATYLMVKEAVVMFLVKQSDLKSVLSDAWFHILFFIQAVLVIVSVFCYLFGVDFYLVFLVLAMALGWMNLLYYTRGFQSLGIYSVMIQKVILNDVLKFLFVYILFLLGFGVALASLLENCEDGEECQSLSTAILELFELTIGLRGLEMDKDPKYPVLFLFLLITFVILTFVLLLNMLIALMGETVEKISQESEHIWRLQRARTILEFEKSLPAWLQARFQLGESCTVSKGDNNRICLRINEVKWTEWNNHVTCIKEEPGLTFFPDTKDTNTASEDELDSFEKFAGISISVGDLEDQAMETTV
Source text: as §1, §2

TRPV3 (G573S) = molecular target: T3, TRPV3 (G573S) (Mus musculus, UniProt Q8K424, G573S); experiment: Whole-cell currents of TRPV3 (G573S) expressed in T-Rex 293 cells
T3 construct: expressed in transfected cells; host or cells: T-Rex 293
T3 sequence (Q8K424 whole entry G573S): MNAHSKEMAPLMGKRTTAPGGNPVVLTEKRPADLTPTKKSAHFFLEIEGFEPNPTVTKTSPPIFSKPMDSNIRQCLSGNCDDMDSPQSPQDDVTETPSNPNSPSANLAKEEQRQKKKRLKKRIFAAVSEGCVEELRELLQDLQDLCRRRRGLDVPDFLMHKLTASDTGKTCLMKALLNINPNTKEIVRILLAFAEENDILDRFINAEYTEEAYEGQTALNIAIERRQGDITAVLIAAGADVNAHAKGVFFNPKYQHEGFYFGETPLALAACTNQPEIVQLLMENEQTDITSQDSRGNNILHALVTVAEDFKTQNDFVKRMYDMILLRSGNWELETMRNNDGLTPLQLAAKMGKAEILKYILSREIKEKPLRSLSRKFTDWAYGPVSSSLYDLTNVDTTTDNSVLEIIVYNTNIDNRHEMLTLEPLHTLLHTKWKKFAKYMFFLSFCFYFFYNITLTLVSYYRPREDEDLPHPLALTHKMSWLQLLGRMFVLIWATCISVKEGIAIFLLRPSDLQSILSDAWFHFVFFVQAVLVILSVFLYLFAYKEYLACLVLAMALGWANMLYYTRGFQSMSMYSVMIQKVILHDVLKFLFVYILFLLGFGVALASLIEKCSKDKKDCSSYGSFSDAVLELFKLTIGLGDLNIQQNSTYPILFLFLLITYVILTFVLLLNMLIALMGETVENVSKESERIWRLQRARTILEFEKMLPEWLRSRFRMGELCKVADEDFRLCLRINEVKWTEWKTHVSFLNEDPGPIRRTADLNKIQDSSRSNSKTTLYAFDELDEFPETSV
Source text: as §1, §2

TRPV3 F666A = molecular target: T4, TRPV3 F666A (Mus musculus, UniProt Q8K424, F666A); experiment: Whole-cell recording of TRPV3 mutant F666A in HEK 293T cells; settings: 2-APB (1 mM)-evoked, –60 mV, read-out: IC50 for inhibition of TRPV3 mutant
T4 construct: expressed in transfected cells; host or cells: HEK 293T
T4 sequence (Q8K424 whole entry F666A): as the sequence (Q8K424 whole entry G573S) above, with S573G, F666A counted along it
Source text: as §1, §2

TRPV3 I674A = molecular target: T5, TRPV3 I674A (Mus musculus, UniProt Q8K424, I674A); experiment: Whole-cell recording of TRPV3 mutant I674A in HEK 293T cells; settings: 2-APB (1 mM)-evoked, –60 mV, read-out: IC50 for inhibition of TRPV3 mutant
T5 construct: expressed in transfected cells; host or cells: HEK 293T
T5 sequence (Q8K424 whole entry I674A): as the sequence (Q8K424 whole entry G573S) above, with S573G, I674A counted along it
Source text: as §1, §2

TRPV3 L630W = molecular target: T6, TRPV3 L630W (Mus musculus, UniProt Q8K424, L630W); experiment: Whole-cell recording of TRPV3 mutant L630W in HEK 293T cells; settings: 2-APB (1 mM)-evoked, –60 mV, read-out: IC50 for inhibition of TRPV3 mutant
T6 construct: expressed in transfected cells; host or cells: HEK 293T
T6 sequence (Q8K424 whole entry L630W): as the sequence (Q8K424 whole entry G573S) above, with S573G, L630W counted along it
Source text: as §1, §2

TRPV3 I644W = molecular target: T7, TRPV3 I644W (Mus musculus, UniProt Q8K424, I644W); experiment: Whole-cell recording of TRPV3 mutant I644W in HEK 293T cells; settings: 2-APB (1 mM)-evoked, –60 mV, read-out: IC50 for inhibition of TRPV3 mutant
T7 construct: expressed in transfected cells; host or cells: HEK 293T
T7 sequence (Q8K424 whole entry I644W): as the sequence (Q8K424 whole entry G573S) above, with S573G, I644W counted along it
Source text: as §1, §2

TRPV3 I659A = molecular target: T8, TRPV3 I659A (Mus musculus, UniProt Q8K424, I659A); experiment: Whole-cell recording of TRPV3 mutant I659A in HEK 293T cells; settings: 2-APB (1 mM)-evoked, –60 mV, read-out: IC50 for inhibition of TRPV3 mutant
T8 construct: expressed in transfected cells; host or cells: HEK 293T
T8 sequence (Q8K424 whole entry I659A): as the sequence (Q8K424 whole entry G573S) above, with S573G, I659A counted along it
Source text: as §1, §2

T1 sequence (Q8R455 whole entry): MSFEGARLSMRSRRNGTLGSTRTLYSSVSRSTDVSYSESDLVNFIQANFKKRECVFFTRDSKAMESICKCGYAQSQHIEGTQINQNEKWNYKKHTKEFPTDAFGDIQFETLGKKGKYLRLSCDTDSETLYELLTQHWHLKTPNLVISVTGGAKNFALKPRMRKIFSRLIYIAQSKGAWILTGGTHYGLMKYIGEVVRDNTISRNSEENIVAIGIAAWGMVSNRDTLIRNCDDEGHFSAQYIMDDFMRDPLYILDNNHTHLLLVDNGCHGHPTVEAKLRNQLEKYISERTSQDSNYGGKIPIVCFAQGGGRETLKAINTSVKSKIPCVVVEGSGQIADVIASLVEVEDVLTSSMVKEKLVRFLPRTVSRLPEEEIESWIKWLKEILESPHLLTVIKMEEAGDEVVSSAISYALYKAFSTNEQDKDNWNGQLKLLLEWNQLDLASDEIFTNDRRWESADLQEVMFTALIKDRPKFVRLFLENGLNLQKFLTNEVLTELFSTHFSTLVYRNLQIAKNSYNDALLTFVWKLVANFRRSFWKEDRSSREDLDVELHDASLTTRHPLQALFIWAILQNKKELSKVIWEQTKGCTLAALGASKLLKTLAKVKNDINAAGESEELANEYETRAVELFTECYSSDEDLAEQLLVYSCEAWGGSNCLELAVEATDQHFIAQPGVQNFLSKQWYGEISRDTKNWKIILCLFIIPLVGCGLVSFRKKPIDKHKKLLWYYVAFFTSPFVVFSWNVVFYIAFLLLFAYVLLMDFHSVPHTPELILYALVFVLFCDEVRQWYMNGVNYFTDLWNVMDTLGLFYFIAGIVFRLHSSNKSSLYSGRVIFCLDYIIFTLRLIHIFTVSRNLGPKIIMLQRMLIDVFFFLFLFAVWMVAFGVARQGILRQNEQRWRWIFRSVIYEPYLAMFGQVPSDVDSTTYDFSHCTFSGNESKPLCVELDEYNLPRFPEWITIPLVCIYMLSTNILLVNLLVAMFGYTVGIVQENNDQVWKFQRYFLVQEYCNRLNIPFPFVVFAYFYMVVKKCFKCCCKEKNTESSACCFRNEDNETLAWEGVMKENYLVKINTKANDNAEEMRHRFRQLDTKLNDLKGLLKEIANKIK

## CCCCOc1ccc(C(=O)CCN2CCCCC2)cc1 [dyclonine]
TRPM8
  Hill coefficient nH: 1.2 ± 0.20
TRPM8; 10 μM dyclonine, menthol-activated
  reduction in current amplitude: 9% ± 2%
TRPA1
  Hill coefficient nH: 1.3 ± 0.15
TRPA1; 10 μM dyclonine, AITC-activated
  reduction in current amplitude: 5% ± 1%
Frog TRPV3 (fTRPV3)
  Hill coefficient nH: 1.6 ± 0.34
Frog TRPV3 (fTRPV3); 3 mM 2-APB-evoked, –60 mV, read-out: IC50 on inhibition of fTRPV3 currents
  IC50: 12.3 µM
TRPV3 (G573S); 10 μM dyclonine, –60 mV, leak subtracted with 20 μM RR
  reduction of spontaneous activities: 74% ± 3%
TRPV3 (G573S); presence of dyclonine
  300 μM 2-APB-evoked responses, of control level: 10% ± 2%
TRPV3 F666A
  IC50: 414 ± 15.7 µM
TRPV3 I674A
  IC50: 15.1 ± 2.1 µM
TRPV3 L630W
  IC50: 30.8 ± 2.2 µM
TRPV3 I644W
  IC50: 26.1 ± 2.8 µM
TRPV3 I659A
  IC50: 0.56 ± 0.06 µM
